Assay: cn = amount concentration of the nth substance listed, in mol/dm3
Conditions: 101 kPa, Liquid

CSCCC(N)C(=O)[O-].[K+] (stereo not drawn) [potassium salt of DL-methionine] + O
Conditions | mass density, 298.15 K [kg/m3] | mass density, 303.15 K [kg/m3] | mass density, 313.15 K [kg/m3] | mass density, 323.15 K [kg/m3] | mass density, 333.15 K [kg/m3] | viscosity, 298.15 K [mPa·s] | viscosity, 303.15 K [mPa·s] | viscosity, 313.15 K [mPa·s] | viscosity, 323.15 K [mPa·s] | viscosity, 333.15 K [mPa·s]
c1 = 0.252 | 1016 | 1014 | 1010 | 1006 | 1003 | 0.987 | 0.884 | 0.722 | 0.608 | 0.519
c1 = 0.503 | 1033 | 1032 | 1027 | 1023 | 1020 | 1.109 | 0.987 | 0.806 | 0.675 | 0.575
c1 = 0.732 | 1051 | 1049 | 1044 | 1039 | 1037 | 1.263 | 1.125 | 0.909 | 0.754 | 0.64
c1 = 0.994 | 1067 | 1065 | 1060 | 1055 | 1053 | 1.425 | 1.264 | 1.019 | 0.84 | 0.708
c1 = 1.252 | 1084 | 1083 | 1077 | 1072 | 1069 | 1.654 | 1.478 | 1.161 | 0.952 | 0.799
c1 = 1.479 | 1100 | 1098 | 1093 | 1087 | 1085 | 1.883 | 1.657 | 1.316 | 1.071 | 0.893

N[C@@H](Cc1ccccc1)C(=O)[O-].[K+] [potassium L-phenylalaninate] + O
Conditions | mass density, 298.15 K [kg/m3] | mass density, 303.15 K [kg/m3] | mass density, 313.15 K [kg/m3] | mass density, 323.15 K [kg/m3] | mass density, 333.15 K [kg/m3] | viscosity, 298.15 K [mPa·s] | viscosity, 303.15 K [mPa·s] | viscosity, 313.15 K [mPa·s] | viscosity, 323.15 K [mPa·s] | viscosity, 333.15 K [mPa·s]
c1 = 0.25 | 1015 | 1014 | 1010 | 1005 | 1001 | 1.059 | 0.938 | 0.769 | 0.641 | 0.549
c1 = 0.496 | 1032 | 1031 | 1027 | 1022 | 1017 | 1.224 | 1.092 | 0.884 | 0.738 | 0.631
c1 = 0.745 | 1051 | 1049 | 1044 | 1039 | 1034 | – | – | – | – | –
c1 = 0.746 | – | – | – | – | – | 1.441 | 1.279 | 1.032 | 0.852 | 0.72
c1 = 0.996 | 1067 | 1065 | 1060 | 1055 | 1049 | 1.695 | 1.495 | 1.194 | 0.98 | 0.823
c1 = 1.226 | 1084 | 1081 | 1077 | 1071 | 1066 | – | – | – | – | –
c1 = 1.227 | – | – | – | – | – | 2.03 | 1.782 | 1.41 | 1.15 | 0.963
c1 = 1.453 | 1100 | 1097 | 1092 | 1087 | 1081 | 2.483 | 2.169 | 1.702 | 1.377 | 1.139

Reference: the NIST ThermoML archive (doi:10.1021/je700699u)
